{"source": "patent US20100298214A1", "about": "“TREATMENT OF AUTOIMMUNE DISEASE” (MASSACHUSETTS INSTITUTE OF TECHNOLOGY, priority 2007, published 2010)", "key": {"prediabetic NOD mice [1]": {"test_system": "prediabetic NOD mice", "experimental": "(§1) NOD mice were obtained from Taconic Farms. Female NOD mice were used in all the studies and monitored for diabetes by checking urine glucose levels at least two times per week, starting around 12 weeks of age. Mice were considered diabetic when urinary glucose level reached 500 mg/dl, as measured with Diastix (Bayer Diagnostics). […] BALB/c mice were purchased from Jackson Laboratory. EA16NOD mice were obtained from Drs. Diane Mathis and Christopher Benoist. Cxcr4^fif Lck-Cre mice and littermate Cxcr4^−if Lck-Cre were on the mixed 129/C57BL/6 background and were generated by breeding Cxcr4^+if Lck-Cre mice. All mice were kept under specific pathogen free facilities. For AMD3100 treatment, prediabetic NOD mice were given AMD3100 (5 mg/kg) subcutaneously daily for the indicated lengths of time. For analysis of T cell distribution, mice were sacrificed at 2 hours after the last AMD3100 injection.\nSingle-cell suspensions were prepared from the spleen, lymph nodes (e.g., superficial cervical, brachial, axillary, inguinal, mesenteric, and pancreas-draining lymph nodes), and bone marrow (e.g., obtained by flushing two femurs and two tibias with cold RPMI 1640 medium containing 5% fetal calf serum [FCS]). All staining antibodies were purchased from BDbioscience, except anti-Foxp3, lineage markers (Lin), and c-Kit and Sea-1, which were from E-bioscience, Stem Cell Technologies, and Biolegend, respectively. Cells were stained in the presence of 2.5 μg/ml anti-FcR antibody in PBS containing 0.1% BSA and 0.1% NaN3 and analyzed on a FACScaliber or a LSR II or a FACSAria, collecting 10,000 to 1,000,000 live cells per sample. Analyses were carried out with Flowjo software. For analysis of LSK cells, 10% of total cells with low level of lineage marker expression were gated for further analysis of Sca-1 versus c-Kit expression profiles. Intracellular staining of Foxp3 and Ki67 was performed according to the manufacturer's instruction.\nAMD3100 is a small molecule antagonist of CXCR4 (De Clercq, 2003, supra; incorporated herein by reference). […] Thus, prediabetic NOD mice were given AMD3100 (5 mg/kg) daily for 8 days, and the distribution and phenotype of T cells in their bone marrow were assayed."}, "prediabetic NOD mice [2]": {"test_system": "prediabetic NOD mice", "settings": "daily for 8 days (FIGS. 8A and 8B)", "experimental": "as §1"}, "NOD mice [3]": {"test_system": "NOD mice", "experiment": "Diabetes incidence monitored by urine glucose level", "type": "in vivo, mouse", "text": "NOD mice were obtained from Taconic Farms. […] BALB/c mice were purchased from Jackson Laboratory. EA16NOD mice were obtained from Drs. Diane Mathis and Christopher Benoist. […] All mice were kept under specific pathogen free facilities.\nTo test whether continuous AMD3100 treatment can inhibit the development of diabetes, prediabetic NOD mice (15 weeks of age) were given AMD3100 daily for 14 weeks. PBS-treated NOD mice started to show evidence of diabetes at 16 weeks of age, and by 29 weeks of age, all mice developed diabetes (FIG. 8D)."}, "[4]": {"test_system": "sublethally irradiated male NOD mice", "settings": "Aboumrad et al., 2007; cited from earlier work"}, "CXCR4": {"molecular_target": "T1, CXCR4 (Homo sapiens, UniProt P61073)", "T1 construct": "endogenous in cells; host or cells: human peripheral mononuclear cells (PBMCs)", "T1 sequence (P61073 whole entry)": "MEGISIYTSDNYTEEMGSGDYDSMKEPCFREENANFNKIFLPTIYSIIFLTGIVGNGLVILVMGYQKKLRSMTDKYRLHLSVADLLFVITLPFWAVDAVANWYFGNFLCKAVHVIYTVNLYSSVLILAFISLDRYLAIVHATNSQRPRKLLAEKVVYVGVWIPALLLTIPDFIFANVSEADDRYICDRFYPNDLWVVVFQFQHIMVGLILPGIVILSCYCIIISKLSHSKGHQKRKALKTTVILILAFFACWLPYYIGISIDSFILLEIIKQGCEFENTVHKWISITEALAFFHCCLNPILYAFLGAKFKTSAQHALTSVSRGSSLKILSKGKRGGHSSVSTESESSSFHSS", "settings": "induction of internalization after binding; Liu et al., 2004; cited from earlier work"}, "NOD mice [5]": {"test_system": "NOD mice", "settings": "cited from earlier work"}, "[6]": {"settings": "treatment for 8 days (FIG. 10G)"}, "[7]": {"settings": "treatment for 8 days (FIG. 10H)"}}}
{"compound": "Cl.Cl.Cl.Cl.Cl.Cl.Cl.Cl.O.O.c1cc(CN2CCCNCCNCCCNCC2)ccc1CN1CCCNCCNCCCNCC1", "note": "[AMD3100, 1,1′-[1,4-phenylenebis(methylene)]-bis-1,4,8,11-tetraazacyclotetradecane octahydrochloride dihydrate]", "values": [{"measurement": "proportion of CD4 T cells with the naïve phenotype (CD45RB^hi CD44^lo) in bone marrow", "setting": "prediabetic NOD mice [1]; 5 mg/kg daily for 8 days (FIG. 5B)", "result": "preferentially reduced"}, {"measurement": "proportion of both CD4 and CD8 T cells in the bone marrow", "setting": "prediabetic NOD mice [1]; 5 mg/kg daily for 8 days, compared to PBS (FIG. 5A)", "result": "significantly reduced"}, {"measurement": "percentage of HSC in the bone marrow", "setting": "prediabetic NOD mice [1]; 8 days, compared to PBS-treated NOD mice, p=0.06 (FIG. 10D)", "result": "reduced"}, {"measurement": "percentage of T cells that proliferated in the spleen and pancreas-draining lymph nodes", "setting": "prediabetic NOD mice [1]; AMD3100 treatment of NOD mice", "result": "did not significantly affect"}, {"measurement": "distribution of NKT cells, dendritic cells, or B cells", "setting": "prediabetic NOD mice [1]; NOD mice following AMD3100 treatment (FIG. 6)", "result": "nor any change"}, {"measurement": "percentages (mean±SE) of CD45RB^hi CD44^lo naïve T cells among TCR+CD4+ cells", "setting": "prediabetic NOD mice [1]; bone marrow, prediabetic NOD mice 15-16 weeks of age, daily for 8 days, n=4, p<0.01 vs PBS", "result": "24.8±3.2", "unit": "%"}, {"measurement": "NKT cell distribution in various organs", "setting": "prediabetic NOD mice [1]; prediabetic NOD mice, 8 days (FIG. 6)", "result": "does not affect"}, {"measurement": "number of HSCs (Lin-Sca1+c-Kit+) in the bone marrow", "setting": "prediabetic NOD mice [1]; treatment for 8 days (FIG. 7C)", "result": "significantly reduced"}, {"measurement": "percentage of Foxp3+CD4+ Treg cells in the bone marrow", "setting": "prediabetic NOD mice [1]; [6]", "result": "increased"}, {"measurement": "percentages of Tregs in the pancreas-draining lymph node (PDLN)", "setting": "prediabetic NOD mice [1]; [6]", "result": "increased significantly"}, {"measurement": "percentages of Tregs in the spleen", "setting": "prediabetic NOD mice [1]; [6]", "result": "increased significantly"}, {"measurement": "number of Tregs in the spleen", "setting": "prediabetic NOD mice [1]; [7]", "result": "increased significantly"}, {"measurement": "total number of Tregs in the bone marrow", "setting": "prediabetic NOD mice [1]; [7]", "result": "decreased"}, {"measurement": "lymphocyte infiltration into the islets (insulitis)", "setting": "prediabetic NOD mice [2]; prediabetic NOD mice 15 weeks of age", "result": "significantly reduced"}, {"measurement": "peri-insulitis", "setting": "prediabetic NOD mice [2]; prediabetic NOD mice", "result": "without affecting"}, {"measurement": "time after termination of treatment at which mice began to develop diabetes", "setting": "NOD mice [3]; after three weeks of daily treatment", "result": "two weeks"}, {"measurement": "diabetes incidence after termination of treatment", "setting": "NOD mice [3]; by 26 weeks of age, three weeks of daily treatment, same level as PBS-treated mice", "result": 70, "unit": "%"}, {"measurement": "mice that developed diabetes during continuous treatment", "setting": "NOD mice [3]; daily for 14 weeks from 15 weeks of age, up to 29 weeks of age (FIG. 8D)", "result": "none"}, {"measurement": "mice that developed diabetes during treatment", "setting": "NOD mice [3]; daily for three weeks from 15-16 weeks of age, period between 17 and 20 weeks of age (FIG. 8C)", "result": "none"}, {"measurement": "diabetes development in the transfer model", "setting": "[4]", "result": "promotes"}]}
{"compound": "O=C1c2c(O)cc(O)cc2O[C@H](c2cc(O)c(O)c(O)c2)[C@H]1O", "note": "[ampelopsin]", "values": [{"measurement": "CXCR4 on the surface of human peripheral mononuclear cells (PBMCs)", "setting": "CXCR4", "result": "decrease"}]}
{"compound": "G-CSF: granulocyte colony-stimulating factor, a known suppressor of CXCL12 expression", "values": [{"measurement": "insulitis and diabetes", "setting": "NOD mice [5]; NOD mice, literature", "result": "reduced"}, {"measurement": "onset of type I diabetes", "setting": "NOD mice [5]; NOD mice, literature", "result": "significantly delays"}]}
{"compound": "CXCL12: chemokine (C-X-C motif) ligand 12, administered systemically (Yano et al., 2007)", "values": [{"measurement": "diabetes on systemic administration", "setting": "NOD mice [5]; Yano et al., 2007", "result": "ameliorates"}]}
